# Experiments:
# Test in all cases: Binding Assay
# Conditions in all cases: pH 7.4; 18 °C
# [1] = target: Serine/threonine-protein kinase MRCK alpha (Homo sapiens, UniProt Q5VT25)
# Experimental: (§1) [3H]PDBu binding to the C1 domains of MRCK alpha/beta and PKC alpha/delta was measured using the polyethylene glycol precipitation assay.
# [2] = target: Serine/threonine-protein kinase MRCK beta (Homo sapiens, UniProt Q9Y5S2)
# Experimental: as §1
# [3] = target: Protein kinase C alpha type (Homo sapiens, UniProt P17252)
# Experimental: as §1
# [4] = target: Protein kinase C delta type (Homo sapiens, UniProt Q05655)
# Chain of Protein kinase C delta type (Q05655 whole entry): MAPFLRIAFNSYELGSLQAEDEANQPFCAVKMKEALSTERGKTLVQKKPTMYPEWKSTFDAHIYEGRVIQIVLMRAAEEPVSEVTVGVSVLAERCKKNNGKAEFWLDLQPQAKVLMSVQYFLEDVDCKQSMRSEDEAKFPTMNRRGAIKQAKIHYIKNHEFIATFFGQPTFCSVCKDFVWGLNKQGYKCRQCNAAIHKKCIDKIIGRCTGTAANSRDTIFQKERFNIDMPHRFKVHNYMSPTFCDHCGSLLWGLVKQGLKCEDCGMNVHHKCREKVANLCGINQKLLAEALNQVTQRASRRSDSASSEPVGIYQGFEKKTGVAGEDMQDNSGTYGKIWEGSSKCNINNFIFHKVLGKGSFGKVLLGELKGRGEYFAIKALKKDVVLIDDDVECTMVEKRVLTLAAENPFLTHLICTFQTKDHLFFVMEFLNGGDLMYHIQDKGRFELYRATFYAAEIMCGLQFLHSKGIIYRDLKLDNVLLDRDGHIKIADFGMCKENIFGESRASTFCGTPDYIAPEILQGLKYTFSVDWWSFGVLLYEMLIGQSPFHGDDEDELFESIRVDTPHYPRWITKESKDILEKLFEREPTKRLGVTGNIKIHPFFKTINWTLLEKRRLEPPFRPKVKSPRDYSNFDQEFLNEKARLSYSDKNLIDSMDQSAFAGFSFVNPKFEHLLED
# Experimental: as §1
# Chain of Serine/threonine-protein kinase MRCK alpha (Q5VT25 whole entry, the tested form may be a part): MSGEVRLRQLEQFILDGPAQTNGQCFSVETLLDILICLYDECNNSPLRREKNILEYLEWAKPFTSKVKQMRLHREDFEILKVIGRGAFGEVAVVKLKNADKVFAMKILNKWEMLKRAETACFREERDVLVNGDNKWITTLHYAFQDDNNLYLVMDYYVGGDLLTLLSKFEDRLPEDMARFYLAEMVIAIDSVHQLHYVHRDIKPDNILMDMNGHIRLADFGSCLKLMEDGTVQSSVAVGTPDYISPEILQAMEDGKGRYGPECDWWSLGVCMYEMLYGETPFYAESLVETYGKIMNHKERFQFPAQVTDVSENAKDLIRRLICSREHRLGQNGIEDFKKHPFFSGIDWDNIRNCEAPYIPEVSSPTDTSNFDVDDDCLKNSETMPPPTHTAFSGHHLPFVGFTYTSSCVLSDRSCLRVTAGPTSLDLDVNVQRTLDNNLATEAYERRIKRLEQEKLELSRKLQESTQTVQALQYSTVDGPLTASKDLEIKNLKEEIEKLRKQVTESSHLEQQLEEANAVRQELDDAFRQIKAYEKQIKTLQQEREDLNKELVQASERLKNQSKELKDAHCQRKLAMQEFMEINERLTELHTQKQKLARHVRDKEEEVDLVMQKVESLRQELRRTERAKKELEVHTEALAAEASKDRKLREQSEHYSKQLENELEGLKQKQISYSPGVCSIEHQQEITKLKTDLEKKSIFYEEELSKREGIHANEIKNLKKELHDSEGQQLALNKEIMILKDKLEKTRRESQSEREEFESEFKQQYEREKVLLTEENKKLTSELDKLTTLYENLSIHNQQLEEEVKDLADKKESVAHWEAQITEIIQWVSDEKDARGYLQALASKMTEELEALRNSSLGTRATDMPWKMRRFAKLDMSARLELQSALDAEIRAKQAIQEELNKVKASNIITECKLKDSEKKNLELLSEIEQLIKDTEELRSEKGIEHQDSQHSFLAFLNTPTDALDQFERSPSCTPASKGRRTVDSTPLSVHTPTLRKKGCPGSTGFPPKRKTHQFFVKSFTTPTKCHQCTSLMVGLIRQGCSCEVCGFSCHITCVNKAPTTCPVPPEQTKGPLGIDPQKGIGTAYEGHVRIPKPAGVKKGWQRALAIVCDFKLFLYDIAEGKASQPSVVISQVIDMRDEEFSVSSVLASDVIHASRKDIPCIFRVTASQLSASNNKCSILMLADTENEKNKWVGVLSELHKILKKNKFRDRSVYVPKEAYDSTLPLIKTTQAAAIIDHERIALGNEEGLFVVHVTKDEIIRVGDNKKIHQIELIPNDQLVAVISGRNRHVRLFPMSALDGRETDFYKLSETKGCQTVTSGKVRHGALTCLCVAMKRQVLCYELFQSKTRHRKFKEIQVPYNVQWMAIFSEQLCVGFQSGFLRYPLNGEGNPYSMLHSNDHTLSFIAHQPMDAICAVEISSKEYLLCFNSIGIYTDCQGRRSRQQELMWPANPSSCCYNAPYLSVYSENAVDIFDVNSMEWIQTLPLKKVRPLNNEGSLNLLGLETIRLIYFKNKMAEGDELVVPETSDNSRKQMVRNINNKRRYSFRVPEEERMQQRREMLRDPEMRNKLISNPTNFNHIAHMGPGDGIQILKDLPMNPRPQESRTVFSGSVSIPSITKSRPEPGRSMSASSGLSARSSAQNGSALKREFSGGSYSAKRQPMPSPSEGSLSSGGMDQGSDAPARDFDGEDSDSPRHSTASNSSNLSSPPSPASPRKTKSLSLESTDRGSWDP
# Chain of Serine/threonine-protein kinase MRCK beta (Q9Y5S2 whole entry): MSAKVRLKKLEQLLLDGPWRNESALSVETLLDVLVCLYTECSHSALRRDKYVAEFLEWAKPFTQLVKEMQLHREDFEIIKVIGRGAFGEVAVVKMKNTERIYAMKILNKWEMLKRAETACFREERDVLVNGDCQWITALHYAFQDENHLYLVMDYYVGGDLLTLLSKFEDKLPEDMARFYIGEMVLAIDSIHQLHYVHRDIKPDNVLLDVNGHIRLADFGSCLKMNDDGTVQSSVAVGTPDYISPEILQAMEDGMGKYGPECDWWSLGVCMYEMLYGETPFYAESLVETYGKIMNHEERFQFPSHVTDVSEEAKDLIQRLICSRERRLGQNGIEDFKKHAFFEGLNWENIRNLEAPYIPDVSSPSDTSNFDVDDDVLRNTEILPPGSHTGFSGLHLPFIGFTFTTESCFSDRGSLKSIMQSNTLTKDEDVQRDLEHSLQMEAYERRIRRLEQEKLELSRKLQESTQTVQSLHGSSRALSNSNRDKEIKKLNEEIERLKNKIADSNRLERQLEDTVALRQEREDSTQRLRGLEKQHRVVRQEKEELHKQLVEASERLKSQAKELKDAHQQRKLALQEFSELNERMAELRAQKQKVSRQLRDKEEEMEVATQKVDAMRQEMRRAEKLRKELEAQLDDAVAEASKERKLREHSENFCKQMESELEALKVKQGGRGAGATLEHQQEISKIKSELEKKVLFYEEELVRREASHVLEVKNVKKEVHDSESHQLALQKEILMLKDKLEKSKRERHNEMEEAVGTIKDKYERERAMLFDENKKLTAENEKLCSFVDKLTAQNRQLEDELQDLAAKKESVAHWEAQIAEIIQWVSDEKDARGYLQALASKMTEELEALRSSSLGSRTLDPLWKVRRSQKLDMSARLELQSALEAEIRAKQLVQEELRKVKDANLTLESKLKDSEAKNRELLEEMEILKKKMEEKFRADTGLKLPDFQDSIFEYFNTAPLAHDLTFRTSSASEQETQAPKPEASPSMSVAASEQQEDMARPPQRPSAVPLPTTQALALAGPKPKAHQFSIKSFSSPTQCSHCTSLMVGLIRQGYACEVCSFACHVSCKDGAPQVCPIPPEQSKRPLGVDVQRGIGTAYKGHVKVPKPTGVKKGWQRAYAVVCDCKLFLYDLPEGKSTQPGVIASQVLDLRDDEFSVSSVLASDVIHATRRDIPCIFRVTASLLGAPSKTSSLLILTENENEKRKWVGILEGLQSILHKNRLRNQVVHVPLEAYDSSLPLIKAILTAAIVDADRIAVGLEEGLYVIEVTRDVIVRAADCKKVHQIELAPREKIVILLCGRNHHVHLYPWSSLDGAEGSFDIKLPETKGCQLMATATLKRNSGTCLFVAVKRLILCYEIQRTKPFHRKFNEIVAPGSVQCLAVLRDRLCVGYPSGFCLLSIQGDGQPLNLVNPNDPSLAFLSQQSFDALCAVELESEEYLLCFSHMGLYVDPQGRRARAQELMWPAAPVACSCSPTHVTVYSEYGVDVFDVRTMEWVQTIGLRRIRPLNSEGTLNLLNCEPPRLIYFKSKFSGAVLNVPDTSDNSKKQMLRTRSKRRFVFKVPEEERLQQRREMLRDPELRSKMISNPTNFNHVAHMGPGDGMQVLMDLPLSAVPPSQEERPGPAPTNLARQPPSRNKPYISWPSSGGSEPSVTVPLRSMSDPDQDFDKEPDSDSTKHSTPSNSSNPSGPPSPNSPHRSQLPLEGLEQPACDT
Compound,Ki [1] [nM],Ki [2] [nM],Ki [3] [nM],Ki [4] [nM]
CCCCCCCC(=O)OC[C@H](CO)OC(=O)CCCCCCC,2820,6960,–,–
CN(C)c1ccc(/C=C2/CC(CO)(COC(=O)c3ccc([N+](=O)[O-])cc3)OC2=O)cc1 (centres undefined) [DAG-lactone (130C045)],22600,26000,4200,1.54
CC(C)CC(C/C=C1/CC(CO)(COC(=O)C(C)(C)C)OC1=O)CC(C)C (centres undefined) [DAG-lactone (HK-434)],1030,1070,402,–

# From BindingDB's records for doi:10.1074/jbc.M707463200 (National Cancer Institute-Bethesda, 2008)
